Measured values published in US7576177B2, “Hsp peptides and analogs for modulation of immune responses via antigen presenting cells” (Andromeda Biotech Ltd., priority 2002, dated 2009).
Read-outs that look alike come from different tables or passages of the source.

What was measured:
[1] = tested on: BALB/c DO.11.10 bone marrow cells cultured for dendritic cells, cocultured with DO.11.10 T cells; experiment: Education of mouse dendritic cells and stimulation of T-cells, cytokine content of supernatant; type: cell-based; settings: for IFN secretion of T cells / IL-4 secretion of T cells / IL-10 secretion of T cells / IL-12 secretion of T cells: 0.3 nM Ova peptide
Description: Whelan et al. (J. Immunol 164, 6453-6460, 2000) addressed the problem in mice by an experiment in which mouse bone marrow cells were grown for 6 days in culture with GM-CSF to give immature dendritic cells. These dendritic cells were then incubated overnight with LPS (known to drive cells to DC1) or with a nematode antigen. The reason for the choice of nematode antigen was that injection of this antigen in vivo gives rise to a Th2 response in animals. After this so-called “education” of the dendritic cells, they were washed and subsequently incubated with naive T cells in the presence of antigenic stimulus. The experiment was possible because of the use of transgenic mice in which all the T cells respond to the same peptide (OVA323-339) which absolves the system from any question of bias of the T cell response at the level of the T cells. Any bias should be a consequence of the “education” of the dendritic cells. After three days of incubation the cytokine responses produced by the T cells, were measured by ELISA. […] In contrast, nematode antigen incubation gave rise to more IL-4 (Th2) than did controls while the LPS incubation inhibited the IL4 response. Therefore, the nematode antigen was said to drive cells to DC2. A similar method was used for testing the compounds of the present invention: • 1. Bone marrow cells were extracted from the leg bones of DO.11.10 mice transgenic for the TcR. All cells from these mice respond to the OVA peptide ([…]). • 2. Bone marrow cells were plated at 10^6 cells/ml in 100 mm diameter tissue culture petri dishes in Iscove's medium supplemented with 10% FCS, […], 1 mM sodium pyruvate, penicillin/streptomycin (according to manufacturer's recommendations), non-essential amino acids, 50 μM β-mercaptoethanol and 10 ng/ml mGM-CSF. • 3. After 4 days, the medium was carefully removed and replaced with fresh medium • 4. After 6 days, the non-adherent cells were harvested and used as immature dendritic cells • 5. The immature dendritic cells are plated at 1×10^6 cells/ml, 1 ml/well in 24 well plates in the above medium with various reagents added at various concentrations and incubated overnight. This is the stage in which the dendritic cells are “educated” • 6. The next day the cells were harvested and washed 3 times then resuspended at 5×10^4 cells/ml in 1 ml of the above medium but without the addition of GM-CSF to be cocultured with T cells • 7. […] 5×10^5 T cells were cultured with the dendritic cells from step 6 in the presence of various concentrations of the OVA peptide (0, 0.3 nM, 3 nM and 30 nM). • 9. After 3 days PMA (50 ng/ml) and ionomycin (500 ng/ml) were added to further stimulate the cells. • 10. The next day the cell supernatants were collected and assayed for cytokine content (Interferon γ, IL4, IL-10 and IL-12).
The compound was tested for stimulation of DO.11.10 bone marrow cells according to the assay described above (Production and education of mouse dendritic cells and stimulation of T-cells).
BALB/c DO.11.10 bone marrow cells were cultured for dendritic cells and then stimulated with LPS 1 μg/ml, LPS 10 μg/ml, hsp60 3 μg/ml, hsp60 10 μg/ml, p277 5 μg/ml and p277 50 μg/ml. The cells were then transferred to wells with T cells from fresh BALB/c DO.11.10 mice and stimulated with OVA peptide at different concentrations (0, 0.3 nM, 3 nM, 30 nM). Supernatant was collected after 48 hours for assay. 30 μl was taken for IFN, 40 μl for IL4 and IL-10 and 50 μl for IL-12 assays. The results are presented in the following tables, as amount of cytokine (pg/ml), and in FIG. 1.

[2] = tested on: THP-1 cells
Description: Alternatively, APCs exposed to Hsp peptides and analogs are tested for direct influence on cytokine production. For example, pre-monocyte like derived cells (e.g. human monocytic cell line THP-1), which can be differentiated to monocytes by treatment with 100 nM phorbol ester (12-O-tetradecanoylphorbol-13-acetate, PMA) for 72 hours, are used. […] Differentiated cells are preincubated with the tested compounds or incubated after PMA treatment following subsequent stimulus with LPS. Secreted amounts of cytokines (such as TNF, and IP-10) are measured. Another example for direct measuring of cytokines secreted from APCs exposed to Hsp peptides and analogs involve measurement of cytokines (e.g. IP-10 and IL-8) secretion in human peripheral blood mononuclear cells cultured first with GM-CSF and IL4 and then with LPS, zymosan or tested peptide. These cells are also used for investigation of cell surface antigens (e.g. CD83 and CD86) indicating their maturation.
The human cell line THP-1 was used for this assay. These cells are pre-monocyte like derived from acute monocytic leukemia and can be differentiated to monocytes by treatment with 100 nM phorbol ester (12-O-tetradecanoylphorbol-13-acetate, PMA) for 72 hours. During this time the cells change morphology from round cells growing in suspension to larger, flat, adherent cells.

[3] = dendritic cells educated with 5 μg/ml
[4] = dendritic cells educated with 50 μg/ml
[5] = differentiated THP-1 cells incubated with peptide
[6] = preincubation, subsequent stimulus with 10 ng/ml LPS

## VLGGGVALLRVIPALDSLTPANED [p277(Val^6-Val^11)]
[1]; compared with non-exposed dendritic cells
  IL-4 produced by T cells after exposure of dendritic cells (in words): more IL-4 than non-exposed dendritic cells
[1]; [3]
  IFN secretion of T cells: 722.22 pg/mL
  IL-4 secretion of T cells: 36.96 pg/mL
  IL-10 secretion of T cells: 32.53 pg/mL
  IL-12 secretion of T cells: 177.50 pg/mL
[1]; [4]
  IFN secretion of T cells: 373.89 pg/mL
  IL-4 secretion of T cells: 82.29 pg/mL
  IL-10 secretion of T cells: 27.15 pg/mL
  IL-12 secretion of T cells: 82.50 pg/mL
[2]; [5]
  direct IP-10 secretion: did not secrete TNF, or IP-10 directly
  direct TNF secretion: did not secrete TNF
[2]; preincubation with 0.0128 ng/ml, then 10 ng/ml LPS
  % stimulation of IP-10 secretion: −48%
[2]; preincubation with 0.064 ng/ml, then 10 ng/ml LPS
  % stimulation of IP-10 secretion: 52%
[2]; preincubation with 0.32 ng/ml, then 10 ng/ml LPS
  % stimulation of IP-10 secretion: 61%
[2]; preincubation with 1.6 ng/ml, then 10 ng/ml LPS
  % stimulation of IP-10 secretion: 46%
[2]; preincubation with 8 ng/ml, then 10 ng/ml LPS
  % stimulation of IP-10 secretion: 77%
[2]; preincubation with 40 ng/ml, then 10 ng/ml LPS
  % stimulation of IP-10 secretion: 141%
[2]; preincubation with 200 ng/ml, then 10 ng/ml LPS
  % stimulation of IP-10 secretion: 45%
[2]; preincubation with 1000 ng/ml, then stimulation with 10 ng/ml LPS
  % stimulation of IP-10 secretion: 45%
[2]; [6]
  amount of IP-10 secreted after preincubation and LPS (in words): increased amount of IP-10 secreted
  amount of TNF after preincubation and LPS: not significantly affected
